# Experiments:
# [1] = test system: Euryhaliotrema perezponcei; parameters: method as in doi:10.1016/j.poly.2013.09.030, PMID 28917638; settings: in vitro and in vivo assays; cited from earlier work
# [2] = test system: ct-DNA; test: Circular dichroism of ct-DNA; type: binding, calf; settings: [DNA]b = 50 µM, [complex]/[DNA] 0-2, 1 h 37 °C
# Experimental: For the UV–Vis, fluorescence and circular dichroism assays the concentration of ct-DNA was determined on a Varian Cary 100 Scan spectrophotometer from the absorption at 260 nm and the corresponding molar absorptivity of 6600 M^−1 cm^−1 (nucleobase concentration). The stock solutions of the coordination compounds and the free ligands were prepared in cacodylate/NaCl buffer (1 mM cacodylic acid and 20 mM sodium chloride) at pH 7.25. The final samples contained a DMSO concentration of 0.2%.
# Circular dichroism (CD) spectra were recorded using a JASCO-815 spectropolarimeter, equipped with xenon-arc lamp of 450 W. The sample compartment was air-purged with N2 before use. For the measurements, a quartz cuvette with an optical path of 5 mm was used. A solution of 25 µM (in base pairs) of ct-DNA in cacodylate/NaCl buffer was incubated for 1 h at 37 °C with increasing amounts of coordination compounds (0–50 µM). The CD spectra were recorded at room temperature.
# The interaction of small molecules with DNA can modify these CD signals depending on the type of binding. Intercalative interactions increase the intensity of the signals, as the result of an increase of the stability of the B conformation, whereas groove binding or covalent interactions tend to decrease the intensity of these signals, which are moreover displaced. The CD spectra for both ligands and their copper(II) and zinc(II) complexes were obtained at constant concentration of ct-DNA, increasing the complex concentration up to two equivalents ([complex]/[DNA] ratios of 0, 0.2, 0.4, 1, 2) with respect to the nucleobases concentration ([DNA]b = 50 µM).
# [3] = Distribution coefficient LogD7.4, shake-flask 1-octanol/MOPS buffer; type: physicochemical; settings: 1-octanol/MOPS buffer, pH 7.4, octanol/water (MOPS buffer 10^–2 M), 25 °C
# Experimental: Solutions between 100 and 10 µM of the free ligands (cenz and onz) and the coordination compounds 3–10 were prepared in a MOPS buffer pH 7.4 as the aqueous phase and in 1-octanol as the organic phase. The absorption at 320 nm and 310 nm was determined for the aqueous and organic phase respectively by electronic spectroscopy (UV–Vis). Through a linear regression (concentration vs. absorption) the molar extinction coefficient of each compound in both phases was determined (Table 3). The lipophilicity was calculated in the 1-octanol/water system from the shake flask method using Eq. 1 [39]:1 […] where, Co is the final concentration in the organic phase and Cw is the final concentration in the aqueous phase (MOPS buffer at 10^–2 M pH 7.4). Both phases were presaturated with 50 µM solutions of the free ligands or 500 µM of each coordination compound and their UV spectrum was recorded. Both phases were combined and kept stirring for 3 h at 25 °C and in the absence of light. Subsequently, the mixture was centrifuged at 400g and the concentration in both phases was determined by UV–Vis spectroscopy using the Beer-Lambert law. The assays were performed in triplicate.
# The T gondii parasite is an apicomplex organism; it requires a host cell to live, so it is important that the drugs used against the parasite have easy access to the cell. The lipophilicity of a compound is an important physicochemical property to determine its ability to permeate the biological membrane through passive diffusion; which usually is measured from the distribution coefficient logD7.4 = log(Co/Cw), in n-octanol/water. The shake-flask method was used to determine the LogD7.4 values from the molar extinction coefficients of the coordination compounds and the ligands in the two solvents (Table 3).
# [4] = test system: pBR322 plasmid DNA; test: Agarose gel electrophoresis, DNA cleavage; type: biochemical; settings: for %Damage / %Nicked / %Supercoiled: compound 50 (mM in the source)
# Experimental: Electrophoresis assays were performed in 1.5% agarose gel and 1× TBE buffer using the DNA plasmid pBR322. The plasmid (15 µM base pairs) was incubated with 10 and 50 μM concentrations of the coordination compounds for 1 h at 37 °C in presence and absence of ascorbic acid (50 μM) as reducing agent and hydrogen peroxide (500 µM) as ROS generator in a final volume of 20 μL. The DNA-cleaving compound [Cu(phen)2(H2O)](NO3)2 was used as reference. The samples were loaded into the gel with 4 μL of a loading buffer (30% glycerol, 5 mM xylene cyanol), and electrophoresis was performed in 1× TBE at 100 V for 1 h in a Bio-Rad horizontal tank. Subsequently, the gel was stained with SYBR™ Safe overnight and images were acquired with a Gel Doc EZ Imager instrument (Bio-Rad).
# Distinct forms of pBR322 plasmid DNA are commonly observed by gel electrophoresis due to the conformational changes that present distinct electrophoretic mobility: (1) supercoiled DNA (Form I) that migrates faster on the gel, (2) circular nicked (Form II), obtained from a one-strand scission, has a slower migration through the gel and (3) linear form (Form III) is generated when both strands are cleaved and migrates between forms I and II [54]. The interaction of the free ligands and their copper(II) and zinc(II) coordination compounds with pBR322 was investigated in presence of H2Asc (50 μM) as reducing agent and H2O2 (500 μM) as ROS generator. Solutions of 10 and 50 µM of the coordination compounds were incubated with the DNA at 37 °C for 1 h.
# [5] = test system: RH tachyzoites of Toxoplasma gondii; test: Viability of extracellular tachyzoites, Sytox Green exclusion test; type: cell-based; settings: 1 h
# Experimental: RH tachyzoites of Toxoplasma gondii were extracted in PBS solution at pH 7.4 from intraperitoneal fluid of infected CD1 mice on the third day of infection and centrifuged for ten minutes at 260g. Purified parasites were used within 4 h after their isolation.
# The viability of the parasites was determined from staining with Sytox Green® fluorescent dye exclusion test. Purified tachyzoites (1 × 10^6) were incubated for one hour at room temperature with PBS solutions of the coordination compounds or the free ligands at concentrations of 40, 20, 10, 5, and 2.5 µM (0.1% DMSO), in a volume final of 1 mL. After the incubation time, the samples were centrifuged for 10 min at 250g, the medium was removed and 20 µL of Sytox Green® was added after 15 min of incubation for differentiate dead parasites in a Neubauer chamber. The assays were performed in triplicate. The half maximal inhibitory concentration (IC50) was calculated by Boltzmann regression analysis and expressed as mean ± standard error of three replicates. Based on the results the tachyzoites were incubated under the same conditions with the coordination compounds [Cu(onz)2Cl2] and [Cu(onz)2Br2] at their respective IC50 values, Sytox Green® was then added, and they were observed by fluorescence microscopy. Sulfadiazine was used as positive control.
# Viability assays were performed against tachyzoites of Toxoplasma gondii. The RH strain was used to evaluate the effect of different concentrations (namely, 2.5, 5, 10, 20 and 40 µM) of the coordination compounds and the free 5-nitroimidazole against the tachyzoites. The evaluation were performed in PBS buffer (pH 7.4) with Sytox Green® exclusion test, which allows differentiating dead from live tachyzoites, since the intact cell membrane of alive ones is not stained.
# [6] = test system: Entamoeba histolytica; settings: cited from earlier work
# [7] = intraperitoneal injection; cited from earlier work
compound,measurement,setting,value
CCS(=O)(=O)CCn1c([N+](=O)[O-])cnc1C.CCS(=O)(=O)CCn1c([N+](=O)[O-])cnc1C.[Br][Cu][Br] [[Cu(tnz)2Br2]],parasite mortality percentage,[1],100%
"Cc1ncc([N+](=O)[O-])n1CC(O)CCl (centres unmarked) [onz, 1-(3-chloro-2-hydroxypropyl)-2-methyl-5-nitroimidazole, reference compound]",effect on CD spectrum of ct-DNA (bands at 275 and 245 nm),[2],did not affect the DNA structure
same,logD at 3 h,[3],0.64
same,%Damage,[4]; + H2Asc,11.80%
same,%Nicked,[4]; + H2Asc,5.60%
same,%Supercoiled,[4]; + H2Asc,88.20%
same,%Damage,[4]; + H2Asc + H2O2,8.80%
same,%Nicked,[4]; + H2Asc + H2O2,4.30%
same,%Supercoiled,[4]; + H2Asc + H2O2,91.20%
same,%Damage,[4]; + H2O2,10.70%
same,%Nicked,[4]; + H2O2,8.90%
same,%Supercoiled,[4]; + H2O2,89.30%
same,%Damage,[4]; no additive,9.80%
same,%Nicked,[4]; no additive,7.60%
same,%Supercoiled,[4]; no additive,90.20%
same,DNA cleavage (in words),[4]; with and without H2Asc / H2O2,did not provoke any significant DNA cleavage
same,activity against T. gondii,"[5]; 2.5-40 µM, PBS",did not show activity
same,MIC,[6],12.5 µM
"Nc1ccc(S(=O)(=O)Nc2ncccn2)cc1 [sulfadiazine, reference compound]",LD50,[7],180 mg/kg
same,IC50,"[5]; Toxoplasma gondii, PBS pH 7.4, mean ± standard error of three replicates, read-out: IC50",> 1600 µM
